Experimental data from patent publication US10119972B2, “Reactive labelling compounds and uses thereof” (Academia Sinica, priority 2014, dated 2018).
Entries after “also recorded” stand apart in the source; their conditions may differ.

How the values were obtained:
[1] = tested on: CL1-5 cells; assay: Live cell imaging of azido-glycoconjugates, no-wash and no-fixation; type: cell-based; conditions: for cell permeability: live CL1-5 cells, intracellular labeling
Description: The performance of 101 in live cell imaging was evaluated. For this purpose, highly sialylated lung cancer cells, CL1-5, were cultured in the presence of peracetylated N-azidoacetylmannosamine (Ac4ManNAz) for 3 days to metabolically produce the azido-sialic acid expressed cells. As a negative control, CL1-5 cells were grown in the presence of peracetylated N-acetylmannosamine (Ac4ManNAc). A time course experiment was conducted by exposing the cells at 30-min intervals under no-wash and no-fixation conditions (FIG. 19, FIG. 22). […] Furthermore, the localization of azido-containing glycoconjugates in living cells was visualized by confocal microscopy. The cells labeled by probe 101 were subsequently stained with anti-GRASP65 followed by FITC-conjugated anti-rabbit for Golgi and propidium iodide (PI, a nuclei marker).
Toward this goal, CL1-5 cells were incubated with Ac4ManNAz for 1 h and subsequently removed excess Ac4ManNAz. We then performed the imaging to monitor the trafficking of the sialylated glycoconjugates. […] However, the appearance of blue fluorescence signal was detected on the cell surface after 5 h. The intensity of fluorescence increased over time, and reached saturation at 8 h (FIG. 21 and FIG. 23).
To observe the fluorescence labeled azido-glycoconjugates in cells, CL1-5 cells were seeded on chamber slide (2.5×10^4 cells/0.5 mL per wells) and incubated in culture medium (RPMI-1640 supplemented with 10% FBS, 100 U/mL penicillin, 100 μg/mL streptomycin, 1 mM L-glutamine and 1 mM sodium pyruvate) with either 200 μM of control sugar (peracetylated N-acetylmannosamine, Ac4ManNAc) or azido-sugar (peracetylated N-azidoacetylmannosamine, Ac4ManNAz) for 3 days.
For Time-lapse imaging of live cells, experiments were carried out using a confocal microscope (TCS-SP5-MP-SMD, Leica) equipped with an incubator to keep the cells in culture conditions. Prewashed cells were incubated with 100 μM of probe 101 in PBS with 10% DMSO and fluorescence imaging of live cells from the previous experiment over 1.5 h. The images were acquired at 450 nm emission and in 5-min intervals.
To observe the fluorescence labeled sialylconjugates in cells dependent on different time, CL1-5 cells were seeded on chamber slide (2.5×10^4 cells/0.5 mL per wells) and incubated in culture medium (RPMI-1640 supplemented with 10% FBS, 100 U/mL penicillin, 100 μg/mL streptomycin, 1 mM L-glutamine and 1 mM sodium pyruvate) with 500 μM of azido-sugar (peracetylated N-azidoacetylmannosamine, Ac4ManNAz) for 1 h. Cells were washed three times with PBS and then incubated in culture medium. […] For fluorescence imaging of live cells, experiments were carried out using a confocal microscope (TCS-SP5-MP-SMD, Leica) equipped with an incubator to keep the cells in culture conditions.

[2] = tested on: living cells; assay: Cytotoxicity of probe in living cells; type: cell-based
[3] = Stability in presence of 3-mercaptopropionic acid by 1H-NMR; type: physicochemical; conditions: 25 mM in CDCl3 with 3-mercaptopropionic acid (32 mM), 25° C., 24 h
Description: A potential problematic side reaction of cyclooctynes is the addition with proteinic or endogenous thiols to the corresponding vinyl sulfides. To test whether potential non-specific stainings of 101 and the corresponding triazole 111 may occur due to additions of the SH groups to the triple bond or double bond by proteinic or endogenous thiols, the experiment was performed by incubation of 101 and 111 with 3-mercaptopropionic acid in CDCl3 (FIGS. 25 and 26).
A solution of compound 101 and compound 111 (25 mM in CDCl3) was incubated with a solution of 3-mercaptopropionic acid (32 mM in CDCl3) at room temperature (25° C.).
FIG. 25 show ^1H-NMR spectrum in CDCl3 of compound 101 and 3-mercaptopropionic acid alone, and ^1H-NMR spectrum of compound 101 was treated with 3-mercaptopropionic acid at 25° C. for 0 h, 2 h and 24 h.

[4] = tested on: CL1-5 cells; assay: Dual fluorescence labeling in cells (SPAAC with CuAAC), confocal microscopy; type: cell-based; conditions: CL1-5 cells with Ac4ManNAl and Ac4GlcNAz; 100 μM coumOCT, 0.1 μM AzBOCEt
Description: A dual-labeling experiment was performed using SPAAC in combination with CuAAC for the concurrent fluorescence labeling of two different metabolically incorporated glycoconjugates. Peracetylated N-acetylmannosamine (Ac4ManNAc) and peracetylated N-acetylglucosamine (Ac4GlcNAc) were employed as the control sugars. ManNAc is converted metabolically to sialic acid that is found as a terminal monosaccharide of glycoproteins and glycolipids in cell, whereas GlcNAz is an internal monosaccharide that abundant in the N- and O-linked glycans produced in the endoplasmic reticulum and Golgi. CL1-5 cells were incubated in the presence of both alkyne-containing sugar (Ac4ManNAl) and azido-containing sugar (Ac4GlcNAz) for three days. The cells were stained by SPAAC with coumOCT (for azido sugars), followed by CuAAC with AzBOCEt^6j (for alkynyl sugars), and investigated by confocal microscopy (FIG. 24).
(A) Illustration of the cell labeling experiments using Ac4ManNAl, Ac4GlcNAz, 101 and AzBOCEt. CL1-5 cells were incubated with 100 μM of Ac4ManNAl and Ac4GlcNAz or control sugars (Ac4ManNAc and Ac4GlcNAc) for 3 days, which were treated with 100 μM of probe 101 for 0.5 h under SPAAC conditions, and then incubated with 0.1 μM of AzBOCEt for 1 h under CuAAC conditions. (B) Dual fluorescence imaging in CL1-5 cells. […]

O=c1ccc2cc3c(cc2o1)C#CCCCC3 [Compound 101, 6,7,8,9-Tetrahydro-10,11-didehydro-cycloocta[g]chromen-2(2H)-one]
incubation time to saturation of fluorescence intensity ([1]; Ac4ManNAz treated CL1-5 cells, 100 μM probe, no-wash and no-fixation): 1.5 h | background labeling ([1]; control cells grown with Ac4ManNAc): background labeling is negligible | cell permeability [1]: cell-permeable | cell permeability ([1]; listed as coumOCT): cell-permeable probe | cytotoxicity [2]: low cytotoxicity; also recorded: nontoxic | thiol-yne or thiol-ene addition / stability in the presence of thiols [3]: inactive; also recorded: high stability | localization of labeled glycoconjugates [4]: shown only in the cytosol
